# Assay results taken from ChEMBL document CHEMBL1275453, “Resistance trends of the Bacteroides fragilis group over a 10-year period, 1997 to 2006, in Madrid, Spain” (2008).
# Columns and labels:
# Type in all cases: functional
# [1] = tested on: Bacteroides eggerthii; test: Antibacterial activity against Bacteroides eggerthii isolate by agar dilution method in presence of clavulanate
# [2] = tested on: Parabacteroides distasonis; test: Antibacterial activity against Bacteroides distasonis isolate by agar dilution method in presence of clavulanate
# [3] = tested on: Phocaeicola vulgatus; test: Antibacterial activity against Bacteroides vulgatus isolate by agar dilution method in presence of clavulanate
# [4] = tested on: Bacteroides sp.; test: Antibacterial activity against Bacteroides spp. assessed as percent resistant isolates by agar dilution method in presence of clavulanate; settings: pooled result: one value given for 4 cell lines, strains, targets or settings
# [5] = tested on: Bacteroides ovatus; test: Antibacterial activity against Bacteroides ovatus assessed as percent resistant isolates by agar dilution method in presence of clavulanate
# [6] = tested on: Bacteroides caccae; test: Antibacterial activity against Bacteroides caccae assessed as percent resistant isolates by agar dilution method in presence of clavulanate
# [7] = tested on: Bacteroides thetaiotaomicron; test: Antibacterial activity against Bacteroides thetaiotaomicron isolate by agar dilution method in presence of clavulanate
# [8] = tested on: Bacteroides stercoris; test: Antibacterial activity against Bacteroides stercoris isolate by agar dilution method in presence of clavulanate
# [9] = tested on: Bacteroides ovatus; test: Antibacterial activity against Bacteroides ovatus isolate by agar dilution method in presence of clavulanate
# [10] = tested on: Parabacteroides distasonis; test: Antibacterial activity against Bacteroides distasonis assessed as percent resistant isolates by agar dilution method in presence of clavulanate
# [11] = tested on: Bacteroides uniformis; test: Antibacterial activity against Bacteroides uniformis assessed as percent resistant isolates by agar dilution method in presence of clavulanate
# [12] = tested on: Phocaeicola vulgatus; test: Antibacterial activity against Bacteroides vulgatus assessed as percent resistant isolates by agar dilution method in presence of clavulanate
# [13] = tested on: Bacteroides uniformis; test: Antibacterial activity against Bacteroides uniformis isolate by agar dilution method in presence of clavulanate
# [14] = tested on: Parabacteroides merdae; test: Antibacterial activity against Bacteroides merdae isolate by agar dilution method in presence of clavulanate
# [15] = tested on: Bacteroides thetaiotaomicron; test: Antibacterial activity against Bacteroides thetaiotaomicron assessed as percent resistant isolates by agar dilution me in presence of clavulanate thod
# [16] = tested on: Bacteroides caccae; test: Antibacterial activity against Bacteroides caccae isolate by agar dilution method in presence of clavulanate
# [17] = tested on: Bacteroides fragilis; test: Antibacterial activity against Bacteroides fragilis assessed as percent resistant isolates by agar dilution method in presence of clavulanate
# [18] = tested on: Bacteroides fragilis; test: Antibacterial activity against Bacteroides fragilis isolate by agar dilution method in presence of clavulanate
# [19] = tested on: Bacteroides sp.; test: Antibacterial activity against Bacteroides spp. isolate by agar dilution method in presence of clavulanate
# [20] = tested on: Phocaeicola vulgatus; test: Antibacterial activity against Bacteroides vulgatus isolate by agar dilution method
# [21] = tested on: Bacteroides uniformis; test: Antibacterial activity against Bacteroides uniformis assessed as percent resistant isolates by agar dilution method
# [22] = tested on: Bacteroides sp.; test: Antibacterial activity against Bacteroides spp. isolate by agar dilution method
# [23] = tested on: Bacteroides caccae; test: Antibacterial activity against Bacteroides caccae assessed as percent resistant isolates by agar dilution method
# [24] = tested on: Parabacteroides merdae; test: Antibacterial activity against Bacteroides merdae isolate by agar dilution method
# [25] = tested on: Bacteroides stercoris; test: Antibacterial activity against Bacteroides stercoris isolate by agar dilution method
# [26] = tested on: Phocaeicola vulgatus; test: Antibacterial activity against Bacteroides vulgatus assessed as percent resistant isolates by agar dilution method
# [27] = tested on: Parabacteroides distasonis; test: Antibacterial activity against Bacteroides distasonis assessed as percent resistant isolates by agar dilution method
# [28] = tested on: Bacteroides caccae; test: Antibacterial activity against Bacteroides caccae isolate by agar dilution method
# [29] = tested on: Bacteroides thetaiotaomicron; test: Antibacterial activity against Bacteroides thetaiotaomicron isolate by agar dilution method
# [30] = tested on: Bacteroides ovatus; test: Antibacterial activity against Bacteroides ovatus assessed as percent resistant isolates by agar dilution method
# [31] = tested on: Bacteroides fragilis; test: Antibacterial activity against Bacteroides fragilis assessed as percent resistant isolates by agar dilution method
# [32] = tested on: Bacteroides ovatus; test: Antibacterial activity against Bacteroides ovatus isolate by agar dilution method
# [33] = tested on: Bacteroides fragilis; test: Antibacterial activity against Bacteroides fragilis assessed as percent resistant isolates
# [34] = tested on: Bacteroides eggerthii; test: Antibacterial activity against Bacteroides eggerthii isolate by agar dilution method
# [35] = tested on: Bacteroides thetaiotaomicron; test: Antibacterial activity against Bacteroides thetaiotaomicron assessed as percent resistant isolates by agar dilution method
# [36] = tested on: Parabacteroides distasonis; test: Antibacterial activity against Bacteroides distasonis isolate by agar dilution method
# [37] = tested on: Bacteroides stercoris; test: Antibacterial activity against Bacteroides stercoris assessed as percent resistant isolates by agar dilution method; settings: pooled result: one value given for 4 cell lines, strains, targets or settings
# [38] = tested on: Bacteroides uniformis; test: Antibacterial activity against Bacteroides uniformis isolate by agar dilution method
# [39] = tested on: Phocaeicola vulgatus; test: Antibacterial activity against Bacteroides vulgatus assessed as percent resistant isolates
# [40] = tested on: Bacteroides stercoris; test: Antibacterial activity against Bacteroides stercoris isolate by agar dilution method in presence of Tazobactam
# [41] = tested on: Parabacteroides distasonis; test: Antibacterial activity against Bacteroides distasonis assessed as percent resistant isolates by agar dilution method in presence of Tazobactam
# [42] = tested on: Bacteroides eggerthii; test: Antibacterial activity against Bacteroides eggerthii assessed as percent resistant isolates by agar dilution method in presence of Tazobactam
# [43] = tested on: Phocaeicola vulgatus; test: Antibacterial activity against Bacteroides vulgatus assessed as percent resistant isolates by agar dilution method in presence of Tazobactam
# [44] = tested on: Bacteroides sp.; test: Antibacterial activity against Bacteroides spp. assessed as percent resistant isolates by agar dilution method in presence of Tazobactam
# [45] = tested on: Bacteroides stercoris; test: Antibacterial activity against Bacteroides stercoris assessed as percent resistant isolates by agar dilution method in presence of Tazobactam
# [46] = tested on: Bacteroides thetaiotaomicron; test: Antibacterial activity against Bacteroides thetaiotaomicron assessed as percent resistant isolates by agar dilution me in presence of Tazobactam thod
# [47] = tested on: Bacteroides caccae; test: Antibacterial activity against Bacteroides caccae isolate by agar dilution method in presence of Tazobactam
# [48] = tested on: Bacteroides uniformis; test: Antibacterial activity against Bacteroides uniformis isolate by agar dilution method in presence of Tazobactam
# [49] = tested on: Parabacteroides merdae; test: Antibacterial activity against Bacteroides merdae assessed as percent resistant isolates by agar dilution method in presence of Tazobactam
# [50] = tested on: Parabacteroides distasonis; test: Antibacterial activity against Bacteroides distasonis isolate by agar dilution method in presence of Tazobactam
# [51] = tested on: Bacteroides thetaiotaomicron; test: Antibacterial activity against Bacteroides thetaiotaomicron isolate by agar dilution method in presence of Tazobactam
# [52] = tested on: Bacteroides eggerthii; test: Antibacterial activity against Bacteroides eggerthii isolate by agar dilution method in presence of Tazobactam
# [53] = tested on: Bacteroides sp.; test: Antibacterial activity against Bacteroides spp. isolate by agar dilution method in presence of Tazobactam
# [54] = tested on: Bacteroides fragilis; test: Antibacterial activity against Bacteroides fragilis assessed as percent resistant isolates by agar dilution method in presence of Tazobactam
# [55] = tested on: Parabacteroides merdae; test: Antibacterial activity against Bacteroides merdae isolate by agar dilution method in presence of Tazobactam
# [56] = tested on: Bacteroides uniformis; test: Antibacterial activity against Bacteroides uniformis assessed as percent resistant isolates by agar dilution method in presence of Tazobactam
# [57] = tested on: Bacteroides fragilis; test: Antibacterial activity against Bacteroides fragilis isolate by agar dilution method in presence of Tazobactam
# [58] = tested on: Bacteroides ovatus; test: Antibacterial activity against Bacteroides ovatus assessed as percent resistant isolates by agar dilution method in presence of Tazobactam
# [59] = tested on: Bacteroides ovatus; test: Antibacterial activity against Bacteroides ovatus isolate by agar dilution method in presence of Tazobactam
# [60] = tested on: Bacteroides caccae; test: Antibacterial activity against Bacteroides caccae assessed as percent resistant isolates by agar dilution method in presence of Tazobactam
# [61] = tested on: Phocaeicola vulgatus; test: Antibacterial activity against Bacteroides vulgatus isolate by agar dilution method in presence of Tazobactam
smiles,measurement,setting,value
CC1(C)S[C@@H]2[C@H](NC(=O)[C@H](N)c3ccc(O)cc3)C(=O)N2[C@H]1C(=O)O [AMOXICILLIN],MIC50,[1],2 µg/mL
same,MIC90,[1],16 µg/mL
same,MIC50,[2],4 µg/mL
same,MIC90,[2],16 µg/mL
same,MIC50,[3],2 µg/mL
same,MIC90,[3],16 µg/mL
same,Activity,[4],19.6%
same,Activity,[5],17.1%
same,Activity,[6],20%
same,MIC50,[7],2 µg/mL
same,MIC90,[7],16 µg/mL
same,MIC50,[8],2 µg/mL
same,MIC90,[8],16 µg/mL
same,MIC50,[9],1 µg/mL
same,MIC90,[9],16 µg/mL
same,Activity,[10],16.3%
same,Activity,[11],12.3%
same,Activity,[12],21.3%
same,MIC50,[13],1 µg/mL
same,MIC90,[13],16 µg/mL
same,MIC50,[14],2 µg/mL
same,MIC90,[14],16 µg/mL
same,Activity,[15],4.9%
same,MIC50,[16],2 µg/mL
same,MIC90,[16],16 µg/mL
same,Activity,[17],6.2%
same,MIC50,[18],1 µg/mL
same,MIC90,[18],8 µg/mL
same,MIC50,[19],2 µg/mL
same,MIC90,[19],16 µg/mL
COc1c(N2C[C@@H]3CCCN[C@@H]3C2)c(F)cc2c(=O)c(C(=O)O)cn(C3CC3)c12 [MOXIFLOXACIN],MIC50,[20],2 µg/mL
same,MIC90,[20],16 µg/mL
same,Activity,[21],24.5%
same,MIC50,[22],2 µg/mL
same,MIC90,[22],16 µg/mL
same,Activity,[23],22.2%
same,MIC50,[24],2 µg/mL
same,MIC90,[24],16 µg/mL
same,MIC50,[25],2 µg/mL
same,MIC90,[25],16 µg/mL
same,Activity,[26],17%
same,Activity,[27],18.6%
same,MIC50,[28],2 µg/mL
same,MIC90,[28],32 µg/mL
same,MIC50,[29],2 µg/mL
same,MIC90,[29],16 µg/mL
same,Activity,[30],24.4%
same,Activity,[31],9.7%
same,MIC50,[32],2 µg/mL
same,MIC90,[32],32 µg/mL
same,Activity,[33],27.3%
same,MIC50,[34],2 µg/mL
same,MIC90,[34],16 µg/mL
same,Activity,[35],17%
same,MIC50,[36],1 µg/mL
same,MIC90,[36],16 µg/mL
same,Activity,[37],28.3%
same,MIC50,[38],2 µg/mL
same,MIC90,[38],32 µg/mL
same,Activity,[39],54.7%
CCN1CCN(C(=O)N[C@@H](C(=O)N[C@@H]2C(=O)N3[C@@H]2SC(C)(C)[C@@H]3C(=O)O)c2ccccc2)C(=O)C1=O [PIPERACILLIN],MIC50,[40],8 µg/mL
same,MIC90,[40],32 µg/mL
same,Activity,[41],0%
same,Activity,[42],0%
same,Activity,[43],0%
same,Activity,[44],0%
same,Activity,[45],0%
same,Activity,[46],3.3%
same,MIC50,[47],8 µg/mL
same,MIC90,[47],32 µg/mL
same,MIC50,[48],4 µg/mL
same,MIC90,[48],16 µg/mL
same,Activity,[49],0%
same,MIC50,[50],16 µg/mL
same,MIC90,[50],16 µg/mL
same,MIC50,[51],16 µg/mL
same,MIC90,[51],32 µg/mL
same,MIC50,[52],8 µg/mL
same,MIC90,[52],32 µg/mL
same,MIC50,[53],8 µg/mL
same,MIC90,[53],32 µg/mL
same,Activity,[54],0.5%
same,MIC50,[55],8 µg/mL
same,MIC90,[55],32 µg/mL
same,Activity,[56],0%
same,MIC50,[57],1 µg/mL
same,MIC90,[57],8 µg/mL
same,Activity,[58],0%
same,MIC50,[59],8 µg/mL
same,MIC90,[59],16 µg/mL
same,Activity,[60],2.2%
same,MIC50,[61],8 µg/mL
same,MIC90,[61],32 µg/mL
